Assay results as given in patent publication US20260125346A1, “Isoquinolinone Derivatives and 4H-Quinolizinone Derivatives and Pharmaceutical Compositions Thereof for the Treatment of Disease” (BeOne Medicines I GmbH, priority 2023, published 2026).

Experiments:
[1] = system: PI3Kα H1047R mutated cell line T-47D cells; assay: Cell Proliferation Assay (CellTiter-Glo), T-47D; assay type: cell-based; conditions: for IC50: Homo sapiens, T47D, 72 h, T-47D, 3 days treatment; for Selectivity: SK-BR-3/T-47D (cell proliferation): cell proliferation IC50 ratio
Summary of the method: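 T-47D cells seeded overnight at 3×10^3/well, then exposed 3 days to 9-point 1:3 dilutions, final […] to 1 nM in 0.1% DMSO. CellTiter-Glo luminescence; relative IC50 from percent inhibition versus medium-only and 0.1% DMSO controls, 4-parameter logistic fit.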

[2] = target: PI3Kα (p110[H1047R]/p85) kinase (Homo sapiens, UniProt P42336, H1047R); assay: PI3Kα (p110[H1047R]/p85) kinase ADP-Glo Assay; assay type: biochemical; conditions: 25 uM ATP; for selectivity: WT/H1047R: ADP-Glo Assay IC50 ratio
PI3Kα (p110[H1047R]/p85) kinase, sequence (P42336 whole entry H1047R): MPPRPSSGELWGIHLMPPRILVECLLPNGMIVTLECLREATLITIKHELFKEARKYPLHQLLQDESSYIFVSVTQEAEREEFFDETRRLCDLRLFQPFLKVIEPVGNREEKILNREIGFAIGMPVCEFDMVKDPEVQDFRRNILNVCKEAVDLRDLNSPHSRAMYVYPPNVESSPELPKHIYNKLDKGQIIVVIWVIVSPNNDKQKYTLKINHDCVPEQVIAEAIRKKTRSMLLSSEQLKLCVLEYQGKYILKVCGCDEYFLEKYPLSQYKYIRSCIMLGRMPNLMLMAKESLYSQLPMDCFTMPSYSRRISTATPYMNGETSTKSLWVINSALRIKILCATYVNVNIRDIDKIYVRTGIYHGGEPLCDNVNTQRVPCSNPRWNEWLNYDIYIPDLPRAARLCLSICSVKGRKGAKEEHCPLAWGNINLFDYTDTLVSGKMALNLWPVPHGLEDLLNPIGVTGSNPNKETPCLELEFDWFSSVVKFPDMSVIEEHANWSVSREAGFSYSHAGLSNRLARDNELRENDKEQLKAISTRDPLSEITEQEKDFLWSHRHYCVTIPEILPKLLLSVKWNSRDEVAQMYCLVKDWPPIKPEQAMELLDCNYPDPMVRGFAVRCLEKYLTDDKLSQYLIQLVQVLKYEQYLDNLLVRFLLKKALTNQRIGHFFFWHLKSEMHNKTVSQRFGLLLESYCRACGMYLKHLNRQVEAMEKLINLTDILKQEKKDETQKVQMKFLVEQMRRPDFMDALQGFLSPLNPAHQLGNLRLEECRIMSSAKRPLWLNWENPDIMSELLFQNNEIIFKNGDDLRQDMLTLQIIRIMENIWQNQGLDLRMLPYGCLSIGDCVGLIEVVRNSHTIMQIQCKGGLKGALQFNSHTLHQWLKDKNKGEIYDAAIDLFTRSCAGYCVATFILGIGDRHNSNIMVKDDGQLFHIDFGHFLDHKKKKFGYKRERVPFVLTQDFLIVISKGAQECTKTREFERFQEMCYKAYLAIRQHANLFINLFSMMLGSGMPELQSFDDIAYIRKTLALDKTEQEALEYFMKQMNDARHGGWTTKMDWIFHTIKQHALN
PI3Kα (p110[H1047R]/p85) kinase, sequence (P27986 whole entry partner): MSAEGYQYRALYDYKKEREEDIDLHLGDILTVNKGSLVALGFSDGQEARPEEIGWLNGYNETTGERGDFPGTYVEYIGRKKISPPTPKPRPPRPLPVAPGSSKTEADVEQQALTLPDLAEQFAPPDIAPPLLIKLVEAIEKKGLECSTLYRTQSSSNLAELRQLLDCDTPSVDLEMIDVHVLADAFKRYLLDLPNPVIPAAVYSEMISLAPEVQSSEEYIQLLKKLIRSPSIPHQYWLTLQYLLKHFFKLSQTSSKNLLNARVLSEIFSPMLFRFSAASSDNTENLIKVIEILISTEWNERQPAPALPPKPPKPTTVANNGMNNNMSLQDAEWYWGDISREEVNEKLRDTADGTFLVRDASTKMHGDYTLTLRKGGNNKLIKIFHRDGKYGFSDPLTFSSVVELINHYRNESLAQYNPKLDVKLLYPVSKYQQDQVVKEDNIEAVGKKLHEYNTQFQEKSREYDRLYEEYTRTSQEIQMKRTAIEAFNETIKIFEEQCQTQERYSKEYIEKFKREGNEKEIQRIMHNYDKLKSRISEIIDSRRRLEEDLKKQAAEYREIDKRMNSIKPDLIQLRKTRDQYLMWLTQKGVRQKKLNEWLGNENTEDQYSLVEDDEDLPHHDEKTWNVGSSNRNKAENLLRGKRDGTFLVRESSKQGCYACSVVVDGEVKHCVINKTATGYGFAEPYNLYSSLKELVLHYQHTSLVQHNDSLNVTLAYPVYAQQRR
Summary of the method: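 ADP-Glo luminescence tracked ADP formed by the mutant p110α(H1047R)/p85 complex during a 120 min room-temperature reaction with 25 µM ATP and 5.35 µg/ml PI(4,5)P2:PS lipid substrate, started after 30 min enzyme–compound–substrate pre-incubation (compound […], 50 mM HEPES pH 7.5). IC50 via four-parameter logistic equation.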

[3] = target: PI3Kα (p110/p85) kinase (wild type, "WT") (Homo sapiens, UniProt P42336); assay: PI3Kα (p110/p85) kinase ADP-Glo Assay; assay type: biochemical; conditions: 25 uM ATP
PI3Kα (p110/p85) kinase (wild type, "WT"), sequence (P42336 whole entry): as the sequence (P42336 whole entry H1047R) above, with R1047H counted along it
PI3Kα (p110/p85) kinase (wild type, "WT"), sequence (P27986 whole entry partner): as the sequence (P27986 whole entry partner) above
Summary of the method: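 IC50 values come from a four-parameter logistic fit of ADP-Glo chemiluminescence, reflecting ADP formed. Enzyme, lipid substrate and […] compound were preincubated 30 min at room temperature, then 25 µM ATP was added for a 120 min reaction in 50 mM HEPES pH7.5, 3 mM MgCl2.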

WT cell line SK-BR-3 = assay: Cell Proliferation Assay (CellTiter-Glo), SK-BR-3; assay type: cell-based; conditions: Homo sapiens, 72 h; SK-BR-3, 3 days treatment
Summary of the method: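 SK-BR-3 cells treated for 3 days with compound in a 9-point series, final concentrations 10 M to 1 nM in 0.1% DMSO. Viability read by CellTiter-Glo luminescence. Relative IC50 from percent inhibition versus medium-only and DMSO controls, four-parameter logistic fit.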

Compound	IC50 [1] [nM]	IC50 [2] [nM]	selectivity: WT/H1047R [2]	IC50 [3] [µM]	IC50 (WT cell line SK-BR-3) [µM]	Selectivity: SK-BR-3/T-47D (cell proliferation) [1]
Cc1cc([C@@H](C)Nc2ccccc2C(=O)O)c2cc(-c3ccc(C(C)(C)O)nc3)n(C)c(=O)c2c1 [Example 56, (R)-2-((1-(3-(6-(2-hydroxypropan-2-yl)pyridin-3-yl)-2,7-dimethyl-1-oxo-1,2-dihydroisoquinolin-5-yl)ethyl)amino)benzoic acid]	96.2	1050	16.3	17.1	> 10	>104
Cc1cc(C(C)Nc2ccccc2C(=O)O)c2cc(-c3ccc4nc(C)sc4c3)n(C)c(=O)c2c1 (stereo not shown) [Example 18, 2-((1-(2,7-dimethyl-3-(2-methylbenzo[d]thiazol-6-yl)-1-oxo-1,2-dihydroisoquinolin-5-yl)ethyl)amino)benzoic acid]	222	272	16.1	4.37	> 10	>45
Cc1cc(C(C)Nc2ccccc2C(=O)O)c2cc(-c3cccc(C(C)(C)C#N)c3)n(C)c(=O)c2c1 (stereo not shown) [Example 5, 2-((1-(3-(3-(2-cyanopropan-2-yl)phenyl)-2,7-dimethyl-1-oxo-1,2-dihydroisoquinolin-5-yl)ethyl)amino)benzoic acid]	520	375	14.1	5.28	> 10	>19
Cc1cc(C(C)Nc2ccccc2C(=O)O)c2cc(-c3ccc(C(F)(F)F)cc3)n(C)c(=O)c2c1 (stereo not shown) [Example 49, 2-((1-(2,7-dimethyl-1-oxo-3-(4-(trifluoromethyl)phenyl)-1,2-dihydroisoquinolin-5-yl)ethyl)amino)benzoic acid]	986	457	20.8	9.53	> 10	>10
Cc1cc(C(C)Nc2ccccc2C(=O)O)c2cc(-c3cccc4cn(C)nc34)n(C)c(=O)c2c1 (stereo not shown) [Example 22, 2-((1-(2,7-dimethyl-3-(2-methyl-2H-indazol-7-yl)-1-oxo-1,2-dihydroisoquinolin-5-yl)ethyl)amino)benzoic acid]	> 10000	1730	30.3	52.3	> 10	
Cc1cc(C(C)Nc2ccccc2S(C)(=O)=O)c2cc(-c3ccccc3)n(C)c(=O)c2c1 (stereo not shown) [Example 82, 2,7-dimethyl-5-(1-((2-(methylsulfonyl)phenyl)amino)ethyl)-3-phenylisoquinolin-1(2H)-one]	> 10000	549	6.0	3.31	> 10	
Cc1cc(C(C)Nc2ccccc2C(=O)O)c2cc(-c3ccc4nn(C)cc4c3)n(C)c(=O)c2c1 (stereo not shown) [Example 19, 2-((1-(2,7-dimethyl-3-(2-methyl-2H-indazol-5-yl)-1-oxo-1,2-dihydroisoquinolin-5-yl)ethyl)amino)benzoic acid]	116	311	21.1	6.56	> 10	>86
Cc1cc(C(C)Nc2ccccc2C(=O)O)c2cc(-c3ccc4c(c3)C3CC3O4)n(C)c(=O)c2c1 (stereo not shown) [Example 53, 2-((1-(3-(1a,6b-dihydro-1H-cyclopropa[b]benzofuran-5-yl)-2,7-dimethyl-1-oxo-1,2-dihydroisoquinolin-5-yl)ethyl)amino)benzoic acid]	815	261	18.5	4.84	> 10	>12

The next lines start with results.

IC50 [1] [nM]	IC50 [2] [nM]	selectivity: WT/H1047R [2]	IC50 [3] [µM]	IC50 (WT cell line SK-BR-3) [µM]	Compound	Selectivity: SK-BR-3/T-47D (cell proliferation) [1]
2460	332	184.0	61.1	> 10	Cc1cc(C(C)Nc2ccccc2C(=O)O)c2cc(-c3ccccc3C#N)n(C)c(=O)c2c1 (stereo not shown) [Example 32, 2-((1-(3-(2-cyanophenyl)-2,7-dimethyl-1-oxo-1,2-dihydroisoquinolin-5-yl)ethyl)amino)benzoic acid]	>4.07
84.6	170	16.3	2.77	> 10	Cc1cc(C(C)Nc2ccccc2C(=O)O)c2cc(-c3ccccc3)n(C)c(=O)c2c1 (stereo not shown) [Example 1, 2-((1-(2,7-dimethyl-1-oxo-3-phenyl-1,2-dihydroisoquinolin-5-yl)ethyl)amino)benzoic acid]	>118
1420	603	84.2	50.8	> 10	Cc1cc(C(C)Nc2ccccc2C(=O)O)c2cc(-c3ccccn3)n(C)c(=O)c2c1 (stereo not shown) [Example 36, 2-((1-(2,7-dimethyl-1-oxo-3-(pyridin-2-yl)-1,2-dihydroisoquinolin-5-yl)ethyl)amino)benzoic acid]	>7.04
177	104	24.1	2.5	> 10	Cc1cc([C@@H](C)Nc2ccccc2C(=O)O)c2cc(-c3ccccc3)n(C)c(=O)c2c1 [Example 30, (R)-2-((1-(2,7-dimethyl-1-oxo-3-phenyl-1,2-dihydroisoquinolin-5-yl)ethyl)amino)benzoic acid]	>57
101	164	15.3	2.52	> 10	Cc1cc(C(C)Nc2ccccc2C(=O)O)c2cc(-c3cccc(F)c3)n(C)c(=O)c2c1 (stereo not shown) [Example 7, 2-((1-(3-(3-fluorophenyl)-2,7-dimethyl-1-oxo-1,2-dihydroisoquinolin-5-yl)ethyl)amino)benzoic acid]	>98.8
329	2210	29.7	65.9	> 10	Cc1cc(C(C)Nc2ccccc2C(=O)O)c2cc(-c3ccc(CN4CCOCC4)nc3)n(C)c(=O)c2c1 (stereo not shown) [Example 78, 2-((1-(2,7-dimethyl-3-(6-(morpholinomethyl)pyridin-3-yl)-1-oxo-1,2-dihydroisoquinolin-5-yl)ethyl)amino)benzoic acid]	>30
143	671	14.7	9.85	> 10	Cc1cc(C(C)Nc2ccccc2C(=O)O)c2cc(-c3cccc(C#N)c3)n(C)c(=O)c2c1 (stereo not shown) [Example 3, 2-((1-(3-(3-cyanophenyl)-2,7-dimethyl-1-oxo-1,2-dihydroisoquinolin-5-yl)ethyl)amino)benzoic acid]	>70
158	183	32.6	5.96	> 10	Cc1cc(C(C)Nc2ccccc2C(=O)O)c2cc(-c3ccc(F)cc3)n(C)c(=O)c2c1 (stereo not shown) [Example 8, 2-((1-(3-(4-fluorophenyl)-2,7-dimethyl-1-oxo-1,2-dihydroisoquinolin-5-yl)ethyl)amino)benzoic acid]	>63
210	480	23.0	11.1	> 10	Cc1cc(C(C)Nc2ccccc2C(=O)O)c2cc(C3=CCN(c4ccccc4)CC3)n(C)c(=O)c2c1 (stereo not shown) [Example 46, 2-((1-(2,7-dimethyl-1-oxo-3-(1-phenyl-1,2,3,6-tetrahydropyridin-4-yl)-1,2-dihydroisoquinolin-5-yl)ethyl)amino)benzoic acid]	>48
465	242	60.4	14.6	> 10	Cc1cc(C(C)Nc2ccccc2C(=O)O)c2cc(-c3ccc(N4CCCC4)cc3)n(C)c(=O)c2c1 (stereo not shown) [Example 84, 2-((1-(2,7-dimethyl-1-oxo-3-(4-(pyrrolidin-1-yl)phenyl)-1,2-dihydroisoquinolin-5-yl)ethyl)amino)benzoic acid]	>22
1400	325	21.4	6.95	> 10	Cc1cc(C(C)Nc2ccccc2C(=O)O)c2cc(-c3ccn(-c4ccccc4)c3)n(C)c(=O)c2c1 (stereo not shown) [Example 77, 2-((1-(2,7-dimethyl-1-oxo-3-(1-phenyl-1H-pyrrol-3-yl)-1,2-dihydroisoquinolin-5-yl)ethyl)amino)benzoic acid]	>7.1
